This is an account of results in patent US5929038A, “Pharmaceutical preparations which inhibit hepatitis B virus (HBV) replication” (Choongwae Pharmaceutical Co., Ltd., priority 1992, dated 1999).

Where “and” joins values, the source holds several entries; their conditions need not be identical. Equal entries are not always repeated.

One data set deals with hematopoietic cells. Conditions: cited from earlier work.
The test system of data set [1] is central and peripheral nervous system. To be noted: in vivo; cited from earlier work.
For a further data set, the system named is HBV DNA replication. The data set can be described thus: Effects on HBV DNA replication in 2.2.15 cells in culture (intracellular HBV DNA and HBV virion DNA). In kind it is cell-based, hepatitis B virus. Conditions: ddC 25 μM.
Where [2] appears, read: 24 hrs following the 9th day of treatment.

In the case of `Nc1ccn([C@H]2CC[C@@H](CO)O2)c(=O)n1` [ddC, 2',3'-dideoxycytidine, reference compound], the “toxicity on hematopoietic cells” value with hematopoietic cells is reported as “toxicity on hematopoietic cells”. In addition, in data set [1], the “toxicity on the central and peripheral nervous system” value was “high toxicity on the central and peripheral nervous system”. In the data set with HBV DNA replication (setting [2]), the “Intracellular HBV DNA, Mono.” value was 1.1 pg/μg cell DNA and 1.2 pg/μg cell DNA and 0.8 pg/μg cell DNA and 1.0 pg/μg cell DNA; the “Intracellular HBV DNA, RI (Replicating Intermediate)” value amounted to 1 pg/μg cell DNA. Also, the “HBV Virion DNA, Day 0” value with HBV DNA replication (Day 0, before first dose) is 65 pg/ml culture medium and 70 pg/ml culture medium and 78 pg/ml culture medium and 60 pg/ml culture medium. For the same compound, the “HBV Virion DNA, Day 3” value in the data set on HBV DNA replication (Day 3) was 41 pg/ml culture medium and 33 pg/ml culture medium and 31 pg/ml culture medium and 40 pg/ml culture medium. Besides, the “HBV Virion DNA, Day 6” value in the data set on HBV DNA replication (Day 6) is 15 pg/ml culture medium and 13 pg/ml culture medium and 10 pg/ml culture medium and 12 pg/ml culture medium.
